Test results taken from US12209087B2, “AKT1 modulators” (Alterome Therapeutics, Inc., priority 2022, dated 2025).

The molecules below were run against T1, full length AKT E17K (Homo sapiens, UniProt P31749, E17K) (assay: NanoBRET Target Engagement (TE) Assay). Settings: competitive displacement of tracer in cells, read-out: AKT1 E17K IC50.
T1 construct: host or cells: HEK-293 (ATCC CRL-1573)
Format: cell-based
In short: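 Compound and tracer incubated 2 h before luminescence at donor 450 nm and acceptor 600 nm, with extracellular signal inhibited. EC50 by sigmoidal variable-slope regression.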

T1 sequence (P31749 whole entry E17K): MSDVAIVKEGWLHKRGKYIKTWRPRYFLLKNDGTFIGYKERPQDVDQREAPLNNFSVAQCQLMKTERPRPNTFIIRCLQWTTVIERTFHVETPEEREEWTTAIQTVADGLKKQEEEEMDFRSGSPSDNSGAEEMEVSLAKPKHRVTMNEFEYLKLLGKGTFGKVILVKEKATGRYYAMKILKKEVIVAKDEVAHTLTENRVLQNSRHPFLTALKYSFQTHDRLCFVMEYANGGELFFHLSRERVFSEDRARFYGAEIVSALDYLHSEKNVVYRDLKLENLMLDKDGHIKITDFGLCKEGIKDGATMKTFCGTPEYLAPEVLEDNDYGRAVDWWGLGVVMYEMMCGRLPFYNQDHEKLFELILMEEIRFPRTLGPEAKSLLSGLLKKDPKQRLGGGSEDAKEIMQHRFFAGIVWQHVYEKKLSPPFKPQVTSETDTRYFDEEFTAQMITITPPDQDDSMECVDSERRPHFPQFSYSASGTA

| IC50 | SMILES |
| --- | --- |
| 15 to 60 nM | Cn1nncc1-c1ccc2nc(-c3cccnc3N)n(-c3ccc(CN4CCC(Nc5ccnc(C#N)n5)CC4)cc3)c2n1 [Example 564, 4-((1-(4-(2-(2-Aminopyridin-3-yl)-5-(1-methyl-1H-1,2,3-triazol-5-yl)-3H-imidazo[4,5-b]pyridin-3-yl)benzyl)piperidin-4-yl)amino)pyrimidine-2-carbonitrile] |
| < 15 nM | N#Cc1nccc(N2CC3(CN(Cc4ccc(-n5c(-c6cccnc6N)nc6ccc(-c7ccc(F)cc7)nc65)cc4)C3)C2)n1 [Example 447, 4-(6-(4-(2-(2-Aminopyridin-3-yl)-5-(4-fluorophenyl)-3H-imidazo[4,5-b]pyridin-3-yl)benzyl)-2,6-diazaspiro[3.3]heptan-2-yl)pyrimidine-2-carbonitrile] |
| < 15 nM | N#Cc1nccc(NC2CCN(Cc3ccc(-n4c(-c5cccnc5N)nc5ccc(-c6ccc(OCF)nc6)nc54)cc3)CC2)n1 [Example 606, 4-((1-(4-(2-(2-Aminopyridin-3-yl)-5-(6-(fluoromethoxy)pyridin-3-yl)-3H-imidazo[4,5-b]pyridin-3-yl)benzyl)piperidin-4-yl)amino)pyrimidine-2-carbonitrile] |
| < 15 nM | N#Cc1nccc(NC2CCN(Cc3ccc(-n4c(-c5cccnc5N)nc5ccc(-c6ccccc6C#N)nc54)cc3)CC2)n1 [Example 335, 4-((1-(4-(2-(2-Aminopyridin-3-yl)-5-(2-cyanophenyl)-3H-imidazo[4,5-b]pyridin-3-yl)benzyl)piperidin-4-yl)amino)pyrimidine-2-carbonitrile] |
| 15 to 60 nM | N#Cc1ccnc(NC2CCN(Cc3ccc(-n4c(-c5cccnc5N)nc5ccc(C6CC6)nc54)cc3)CC2)n1 [Example 351, 2-((1-(4-(2-(2-Aminopyridin-3-yl)-5-cyclopropyl-3H-imidazo[4,5-b]pyridin-3-yl)benzyl)piperidin-4-yl)amino)pyrimidine-4-carbonitrile] |
| < 15 nM | N#Cc1cncc(-c2ccc3nc(-c4cccnc4N)n(-c4ccc(CN5CCC(Nc6ccnc(C#N)n6)CC5)cc4)c3n2)c1 [Example 430, 4-((1-(4-(2-(2-Aminopyridin-3-yl)-5-(5-cyanopyridin-3-yl)-3H-imidazo[4,5-b]pyridin-3-yl)benzyl)piperidin-4-yl)amino)pyrimidine-2-carbonitrile] |
| < 15 nM | N#Cc1nccc(NC2CCN(Cc3ccc(-n4c(-c5cccnc5N)nc5cc(C#N)c(-c6ccc(F)cc6)nc54)cc3)CC2)n1 [Example 557, 2-(2-Aminopyridin-3-yl)-3-(4-((4-((2-cyanopyrimidin-4-yl)amino)piperidin-1-yl)methyl)phenyl)-5-(4-fluorophenyl)-3H-imidazo[4,5-b]pyridine-6-carbonitrile] |
| < 15 nM | Cc1c(-c2ccc3nc(-c4cccnc4N)n(-c4ccc(CN5CCC(Nc6ccnc(C#N)n6)CC5)cc4)c3n2)cnn1C [Example 484, 4-((1-(4-(2-(2-Aminopyridin-3-yl)-5-(1,5-dimethyl-1H-pyrazol-4-yl)-3H-imidazo[4,5-b]pyridin-3-yl)benzyl)piperidin-4-yl)amino)pyrimidine-2-carbonitrile] |
| < 15 nM | COc1cc(-c2ccc3nc(-c4cccnc4N)n(-c4ccc(CN5CCC(Nc6ccnc(C#N)n6)CC5)cc4)c3n2)ccn1 [Example 511, 4-((1-(4-(2-(2-Aminopyridin-3-yl)-5-(2-methoxypyridin-4-yl)-3H-imidazo[4,5-b]pyridin-3-yl)benzyl)piperidin-4-yl)amino)pyrimidine-2-carbonitrile] |
| < 15 nM | Cc1ccc(-c2ccc3nc(-c4cccnc4N)n(-c4ccc(CN5CCC(Nc6ccnc(C#N)n6)CC5)cc4)c3n2)cn1 [Example 534, 4-((1-(4-(2-(2-Aminopyridin-3-yl)-5-(6-methylpyridin-3-yl)-3H-imidazo[4,5-b]pyridin-3-yl)benzyl)piperidin-4-yl)amino)pyrimidine-2-carbonitrile] |
| < 15 nM | N#Cc1nccc(NC2CCN(Cc3ccc(-n4c(-c5nccnc5N)nc5ccc(-c6cnn(CF)n6)nc54)cc3)CC2)n1 [Example 627, 4-((1-(4-(2-(3-Aminopyrazin-2-yl)-5-(2-(fluoromethyl)-2H-1,2,3-triazol-4-yl)-3H-imidazo[4,5-b]pyridin-3-yl)benzyl)piperidin-4-yl)amino)pyrimidine-2-carbonitrile] |
| < 15 nM | [2H]C([2H])(c1ccc(-n2c(-c3cccnc3N)nc3cc(C)c(C)nc32)cc1)N1CCC(Nc2ccnc(C#N)n2)CC1 [Example 504, 4-((1-((4-(2-(2-Aminopyridin-3-yl)-5,6-dimethyl-3H-imidazo[4,5-b]pyridin-3-yl)phenyl)methyl-d2)piperidin-4-yl)amino)pyrimidine-2-carbonitrile] |
| < 15 nM | COc1cncc(-c2ccc3nc(-c4cccnc4N)n(-c4ccc(CN5CCC(Nc6ccnc(C#N)n6)CC5)cc4)c3n2)c1 [Example 512, 4-((1-(4-(2-(2-Aminopyridin-3-yl)-5-(5-methoxypyridin-3-yl)-3H-imidazo[4,5-b]pyridin-3-yl)benzyl)piperidin-4-yl)amino)pyrimidine-2-carbonitrile] |
| < 15 nM | N#Cc1nccc(NC2CCN(Cc3ccc(-n4c(-c5cccnc5N)nc5ccc(-c6ccc(C(F)(F)F)nc6)nc54)cc3)CC2)n1 [Example 646, 4-((1-(4-(2-(2-Aminopyridin-3-yl)-5-(6-(trifluoromethyl)pyridin-3-yl)-3H-imidazo[4,5-b]pyridin-3-yl)benzyl)piperidin-4-yl)amino)pyrimidine-2-carbonitrile] |
| < 15 nM | COc1cnc(-c2ccc3nc(-c4cccnc4N)n(-c4ccc(CN5CCC(Nc6ccnc(C#N)n6)CC5)cc4)c3n2)cn1 [Example 583, 4-((1-(4-(2-(2-Aminopyridin-3-yl)-5-(5-methoxypyrazin-2-yl)-3H-imidazo[4,5-b]pyridin-3-yl)benzyl)piperidin-4-yl)amino)pyrimidine-2-carbonitrile] |
| < 15 nM | Cc1cc(-c2ccc3nc(-c4cccnc4N)n(-c4ccc(CN5CCC(Nc6ccnc(C#N)n6)CC5)cc4)c3n2)ccn1 [Example 477, 4-((1-(4-(2-(2-Aminopyridin-3-yl)-5-(2-methylpyridin-4-yl)-3H-imidazo[4,5-b]pyridin-3-yl)benzyl)piperidin-4-yl)amino)pyrimidine-2-carbonitrile] |

Same assay, conditions: competitive tracer displacement in living cells, read-out: AKT1 E17K IC50

| IC50 | SMILES |
| --- | --- |
| 600 to 10000 nM | N#Cc1ccnc(NC2CCN(Cc3ccc(-n4c(-c5cccnc5N)nc5cccnc54)cc3)CC2)c1 [Example 75, 2-((1-(4-(2-(2-Aminopyridin-3-yl)-3H-imidazo[4,5-b]pyridin-3-yl)benzyl)piperidin-4-yl)amino)isonicotinonitrile] |
| 60 to 600 nM | C[C@H]1CN(Cc2ccc(-n3c(-c4cccnc4N)nc4ccc(-c5ccccc5)nc43)cc2)C[C@H](C)N1c1nccc(C#N)n1 [Example 193, 2-((2S,6S)-4-(4-(2-(2-Aminopyridin-3-yl)-5-phenyl-3H-imidazo[4,5-b]pyridin-3-yl)benzyl)-2,6-dimethylpiperazin-1-yl)pyrimidine-4-carbonitrile] |
| 60 to 600 nM | N#Cc1cncc(C(=O)NC2CCN(Cc3ccc(-n4c(-c5cccnc5N)nc5ccc(-c6ccccc6)nc54)cc3)CC2)c1 [Example 57, N-(1-(4-(2-(2-Aminopyridin-3-yl)-5-phenyl-3H-imidazo[4,5-h]pyridin-3-yl)benzyl)piperidin-4-yl)-5-cyanonicotinamide] |
| < 15 nM | N#Cc1cc(NC2CCN(Cc3ccc(-n4c(-c5cccnc5N)nc5ccc(-c6cccc(F)c6)nc54)cc3)CC2)ncn1 [Example 311, 6-((1-(4-(2-(2-Aminopyridin-3-yl)-5-(3-fluorophenyl)-3H-imidazo[4,5-b]pyridin-3-yl)benzyl)piperidin-4-yl)amino)pyrimidine-4-carbonitrile] |
| < 15 nM | N#Cc1nccc(NC2CCN(Cc3ccc(-n4c(-c5cccnc5N)nc5ccc(-c6ccccc6)nc54)cc3)CC2)n1 [Example 88, 4-((1-(4-(2-(2-Aminopyridin-3-yl)-5-phenyl-3H-imidazo[4,5-b]pyridin-3-yl)benzyl)piperidin-4-yl)amino)pyrimidine-2-carbonitrile] |
| 60 to 600 nM | N#Cc1nccc(NC2C3CCC2CN(Cc2ccc(-n4c(-c5cccnc5N)nc5ccc(-c6ccccc6)nc54)cc2)C3)n1 (stereo not drawn) [Example 201, 4-((3-(4-(2-(2-Aminopyridin-3-yl)-5-phenyl-3H-imidazo[4,5-b]pyridin-3-yl)benzyl)-3-azabicyclo[3.2.1]octan-8-yl)amino)pyrimidine-2-carbonitrile] |
| < 15 nM | N#Cc1cc(N2CCCN(Cc3ccc(-n4c(-c5cccnc5N)nc5ccc(-c6ccccc6)nc54)cc3)CC2)ncn1 [Example 215, 6-(4-(4-(2-(2-aminopyridin-3-yl)-5-phenyl-3H-imidazo[4,5-b]pyridin-3-yl)benzyl)-1,4-diazepan-1-yl)pyrimidine-4-carbonitrile] |
| 60 to 600 nM | CC(=O)Nc1cccc(-c2ccc3nc(-c4cccnc4N)n(-c4ccc(CN5CCN(c6cc(C#N)cnn6)CC5)cc4)c3n2)c1 [Example 45, N-(3-(2-(2-Aminopyridin-3-yl)-3-(4-((4-(5-cyanopyridazin-3-yl)piperazin-1-yl)methyl)phenyl)-3H-imidazo[4,5-b]pyridin-5-yl)phenyl)acetamide] |
| 600 to 10000 nM | N#Cc1nccc(NCc2ccc(-n3c(-c4cccnc4N)nc4cccnc43)cc2)n1 [Example 47, 4-((4-(2-(2-Aminopyridin-3-yl)-3H-imidazo[4,5-b]pyridin-3-yl)benzyl)amino)pyrimidine-2-carbonitrile] |
| < 15 nM | [2H]C([2H])([2H])N(C(=O)c1ccnc(C#N)n1)C1CCN(Cc2ccc(-n3c(-c4cccnc4N)nc4ccc(-c5ccccc5)nc43)cc2)CC1 [Example 234, N-(1-(4-(2-(2-aminopyridin-3-yl)-5-phenyl-3H-imidazo[4,5-b]pyridin-3-yl)benzyl)piperidin-4-yl)-2-cyano-N-(methyl-d3)pyrimidine-4-carboxamide] |
| 600 to 10000 nM | N#Cc1cc(C(=O)NCc2ccc(-n3c(-c4cccnc4N)nc4cccnc43)cc2)ccn1 [Example 122, N-(4-(2-(2-Aminopyridin-3-yl)-3H-imidazo[4,5-b]pyridin-3-yl)benzyl)-2-cyanoisonicotinamide] |
